Data taken from patent publication US20180243317A1, “COMPOSITIONS COMPRISING A PI3K INHIBITOR AND AN HDAC INHIBITOR” (KARUS THERAPEUTICS LTD, priority 2015, published 2018).
Like-named read-outs stand apart in the source and are kept apart here.

Key:
[1] = system: panel of 94 cancer cell lines; test: Potentiation study #2015030003, SRB proliferation assay; type: cell-based; conditions: 72 h
Procedure: (§1) 48 hours later, cells were treated with 10μL media containing compound at 20× final concentration (resulting in a final DMSO concentration of 0.1%). […] In addition, control plates with cells not exposed to compound were analyzed after 48 hours (time zero, Tz). […] Briefly—after compound treatment, media was aspirated and cells were fixed by addition of 10% TCA.
(§2) Average background optical density (derived from plates and wells containing medium without cells) was subtracted from the optical density values from all controls and treated cells.

[2] = system: MINO cells (mantle cell lymphoma); test: SRB proliferation assay (potentiation and concentration matrix studies); type: cell-based, human; conditions: in the presence of 100 nM Compound A, GI50 shift, z-score and/or HSA analysis
Procedure: (§3) Cell lines marked with ‡ were also tested in study #2015030004.
as §1, §2

[3] = system: PC-3 cells (prostate adenocarcinoma); test: as above; type: cell-based, human; conditions: PC-3, in the presence of 100 nM Compound A; GI50 shift, z-score and/or HSA analysis
Procedure: as §3, §1, §2

[4] = system: LoVo cells (colorectal adenocarcinoma); test: SRB proliferation assay (potentiation study); type: cell-based, human; conditions: in the presence of 100 nM Compound A, GI50 shift, z-score and/or HSA analysis
Procedure: as §1, §2

GI50 ([1]; Compound GG alone, read-out: GI50 values for the individual cell lines (range)): 4.7 to 33 µM
GI50 ([1]; Compound GG alone, read-out: mean (±s.e.m) GI50 value across the whole panel): 17.3 µM
GI50 ([1]; Compound GG in the presence of 100 nM Compound A, read-out: GI50 values for the individual cell lines (range)): 1.7 to 35 µM
GI50 ([1]; Compound GG in the presence of 100 nM Compound A, read-out: mean (±s.e.m) GI50 value across the whole panel): 14.1 µM
Structure (SMILES): O=C(NO)c1ccc(CN(c2cnccn2)c2cnccn2)cc1 [Example GG, 4-{[Bis(pyrazin-2-yl)amino]methyl}-N-hydroxybenzamide]
potentiation of the pharmacological activity of Compound GG by Compound A [2]: potentiate
potentiation of the pharmacological activity of Compound GG by Compound A [3]: potentiate
potentiation of the pharmacological activity of Compound GG by Compound A [4]: potentiate
